The source of these data is publication PMC7558282, “The Anticancer Activity for the Bumetanide-Based Analogs via Targeting the Tumor-Associated Membrane-Bound Human Carbonic Anhydrase-IX Enzyme” (Pharmaceuticals, 2020).

Assay [1] has as its system SCaBER bladder squamous cell carcinoma cells. Description: MTT cell proliferation assay, SCaBER. In kind it is cell-based. Particulars: Homo sapiens, 48 h, ±SEM. Here is the method:
Cells were cultured in 96-well plate, at cell density of 1.2–1.8 × 10^4 cells/well, using Dulbecco’s Modified Eagle Medium (Invitrogen^TM, Carlsbad, CA, USA) supplemented with 10% (w/v) fetal bovine serum (Hyclone^TM, Marlborough, MA, USA), 10 ug/mL of insulin (Sigma-Aldrich^TM, St. Louis, MO, USA), and 1% (w/v) penicillin-streptomycin (Sigma-Aldrich^TM, St. Louis, MO, USA). Following 24h-incubation period under 5% CO2 at 37 °C, cells were treated with compounds’ serial concentrations (0.1 µM–100 µM) in DMSO, where the DMSO final concentration in the culture medium never exceeded 0.2% (v/v). Subsequently, the treated microplates were incubated for 48 h at 5% CO2/37 °C prior to examination under the inverted microscope and proceeding for the MTT assay. The culture medium was discarded and 100 µL of complete medium comprising 5 mg/mL MTT dye were dispensed within every well, then plates were reincubated for 2 h at 5% CO2/37 °C. […] Color intensity within each well was measured spectrophotometrically using the ROBONIK-P2000® ELISA microplate reader (Bio-Tek^TM, Winooski, VT, USA) at 450 nm while subtracting the background absorbance of multi well plates at 690 nm. The experiment was conducted in triplicates and IC50 values were estimated through linear regression between the logarithm-transformed compound concentrations and corresponding % cell viability = (mean absorbance in test wells/mean absorbance in control wells) ∗ 100, having the response variable slope (four parameters) for all samples.
On the technique in general: Tetrazolium dyes change colour on reduction, which living cells bring about.

Another assay concerns A-498 cells. In words: Annexin V/PI apoptotic assay in A-498. The class given is cell-based, human. Particulars: 6 µM, 48 h; control 1.3%. Here is the method: The efficient antiproliferative activity of compound 9c on the kidney carcinoma A-498 cell line (Table 2) prompted a further investigation of its mechanistic growth inhibitory action. Thus, the impact of bumetanide analog 9c at 6 µM for 48 h on cell cycle distribution and induction of apoptosis in A-498 cells was next explored. […] Analysis of apoptosis was performed to determine the mode of cell death induced by 9c in A-498 cells. Compound 9c induced both early and late apoptosis in A-498 cells at 6 µM when compared to the untreated control cells (p < 0.01 and p < 0.001, respectively) (Figure 5A). […]
Figure 5 Compound 9c potently induces apoptosis in kidney carcinoma cell line A-498 cells (Annexin V/PI FACS). (A) Effect of compound 9c in A-498 cells analyzed by flow cytometry after double staining of the cells with Annexin-V-FITC and PI. […] (B) Quantitative analysis of apoptosis. […]
A-498 Cells were seeded at a density of 1 × 10^5 cells/well in 24-well plates and treated with compound 9c (6 µM) for 48 h. […] The DNA content of cells (10,000 cells/experimental group) was analyzed by flow cytometer at 488 nm using a FACSCalibur flow cytometer (BD Biosciences, San Jose, CA, USA) and all data were recorded and analyzed using the CellQuest Software (Becton-Dickinson Biosciences, San Jose, CA, USA). […]

The next assay has as its target hCA-II (Homo sapiens, UniProt P00918). In words: colorimetric CA-inhibition assay based on CA-esterase activity, hCA-II. Conditions: hCA-II IC50, three replicate experiments; N/D = non-detected IC50 within the range of the tested concentrations.
The target in another assay is hCA-IX (Homo sapiens, UniProt Q16790). In words: colorimetric CA-inhibition assay based on CA-esterase activity, hCA-IX.

Protocol for hCA-II: (§1) Based on the kit manufacturer’s protocol, the candidate inhibitors were dissolved in DMSO at 10 × highest final test concentration and specific aliquots of such working dilutions were incubated with the target hCA isozyme for 10 min at room temperature prior to permit the formation of the enzyme-inhibitor complex. Triplicate experiments were performed for each candidate inhibitor concentration. Parallel wells of solvent and enzyme controls were prepared to test the solvent impact upon the activity of the target enzyme. […] Following incubation, the CA-substrate was added and changes in absorbance (at 405 nm) were monitored for 60 min at room temperature within the kinetic mode. The negative enzyme control wells (without added compounds) were arbitrarily set as 100% enzyme activity. […] Absorbance readings from background wells were subtracted from the compound assay wells in order to account for background hydrolysis activity caused by the buffer solution [44, 45].
Protocol for hCA-IX: as §1

In general, IC50 refers to the concentration that inhibits the measured activity by half. A lower IC50 goes with greater potency. On to `CCCCNc1cc(-c2n[nH]c(=S)n2-c2ccc(Br)cc2)cc(S(N)(=O)=O)c1Oc1ccccc1` [Compound 9c], for which the IC50 in assay [1] was found to be 8800 ± 1900 nM; on hCA-II it was 320 nM; on hCA-IX (hCA-IX IC50, three replicate experiments) it was 4.42 nM. Also, the “Annexin V-staining positive cells (total apoptotic cells)” value in the assay on A-498 cells worked out at 25.5%. Also, at hCA-IX (ratio of IC50 values for isozyme CA-II relative to CA-IX), the “Selectivity Ratio II/IX” value was 72.4.
